Results on 4 compounds are retold here after US20260125346A1, “Isoquinolinone Derivatives and 4H-Quinolizinone Derivatives and Pharmaceutical Compositions Thereof for the Treatment of Disease” (BeOne Medicines I GmbH, priority 2023, published 2026).

For test [1], the target named is PI3Kα (p110/p85) kinase (wild type, "WT") (Homo sapiens, UniProt P42336). Nature of the test: PI3Kα (p110/p85) kinase ADP-Glo Assay. It counts as biochemical. The note with it: 25 uM ATP. The procedure, abridged: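 IC50 values come from a four-parameter logistic fit of ADP-Glo chemiluminescence, reflecting ADP formed. Enzyme, lipid substrate and […] compound were preincubated 30 min at room temperature, then 25 µM ATP was added for a 120 min reaction in 50 mM HEPES pH7.5, 3 mM MgCl2.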
(In general: In ADP-Glo the light output rises with the ADP produced.)

In test [2] the test system is PI3Kα H1047R mutated cell line T-47D. Nature of the test: Phospho-AKT (Ser473) Inhibition Assay (HTRF), T-47D. It counts as cell-based. Conditions: for IC50: Homo sapiens, T47D, T-47D, 1 hour treatment, read-out: p-AKT Inhibition assay (S473) IC50 T-47D; for Selectivity: SK-BR-3/T-47D (p-AKT): p-AKT (S473) IC50 ratio. The procedure, abridged: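 Cells seeded overnight in insulin-supplemented MEM, then treated 1 h with 11-point 1:3 compound dilutions (10 μM to 0.1 nM final, 0.1% DMSO). Lysates assayed for phospho-AKT Ser473 by HTRF; IC50 from 4-parameter logistic fit, normalised to DMSO (max) and 10 μM GDC0077 (min).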

The test system of test [3] is WT cell line SK-BR-3. Nature of the test: Phospho-AKT (Ser473) Inhibition Assay (HTRF), SK-BR-3. The class given is cell-based. The note with it: Homo sapiens; SK-BR-3, 1 hour treatment; read-out: p-AKT Inhibition assay (S473) IC50 SK-BR-3. The procedure, abridged:
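SK-BR-3 (PI3Kα WT) cells seeded overnight in MEM with insulin, then treated 1 h with 11-point 1:3 dilutions (10 μM to 0.1 nM, 0.1% DMSO). Lysates read for phospho-AKT Ser473 by HTRF after 4 h antibody incubation at room temperature. IC50 from 4-parameter fit, % inhibition normalized to DMSO (max) and 10 μM GDC0077 (min).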

Test [4] has as its system PI3Kα H1047R mutated cell line T-47D cells. Briefly: Cell Proliferation Assay (CellTiter-Glo), T-47D. The class given is cell-based. The note with it: for IC50: Homo sapiens, T47D, 72 h, T-47D, 3 days treatment; for Selectivity: SK-BR-3/T-47D (cell proliferation): cell proliferation IC50 ratio. The procedure, abridged: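 T-47D cells seeded overnight at 3×10^3/well, then exposed 3 days to 9-point 1:3 dilutions, final […] to 1 nM in 0.1% DMSO. CellTiter-Glo luminescence; relative IC50 from percent inhibition versus medium-only and 0.1% DMSO controls, 4-parameter logistic fit.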
For orientation: ATP-based viability assays read luminescence as a measure of living cells.

Sequence of PI3Kα (p110/p85) kinase (wild type, "WT") (P42336 whole entry): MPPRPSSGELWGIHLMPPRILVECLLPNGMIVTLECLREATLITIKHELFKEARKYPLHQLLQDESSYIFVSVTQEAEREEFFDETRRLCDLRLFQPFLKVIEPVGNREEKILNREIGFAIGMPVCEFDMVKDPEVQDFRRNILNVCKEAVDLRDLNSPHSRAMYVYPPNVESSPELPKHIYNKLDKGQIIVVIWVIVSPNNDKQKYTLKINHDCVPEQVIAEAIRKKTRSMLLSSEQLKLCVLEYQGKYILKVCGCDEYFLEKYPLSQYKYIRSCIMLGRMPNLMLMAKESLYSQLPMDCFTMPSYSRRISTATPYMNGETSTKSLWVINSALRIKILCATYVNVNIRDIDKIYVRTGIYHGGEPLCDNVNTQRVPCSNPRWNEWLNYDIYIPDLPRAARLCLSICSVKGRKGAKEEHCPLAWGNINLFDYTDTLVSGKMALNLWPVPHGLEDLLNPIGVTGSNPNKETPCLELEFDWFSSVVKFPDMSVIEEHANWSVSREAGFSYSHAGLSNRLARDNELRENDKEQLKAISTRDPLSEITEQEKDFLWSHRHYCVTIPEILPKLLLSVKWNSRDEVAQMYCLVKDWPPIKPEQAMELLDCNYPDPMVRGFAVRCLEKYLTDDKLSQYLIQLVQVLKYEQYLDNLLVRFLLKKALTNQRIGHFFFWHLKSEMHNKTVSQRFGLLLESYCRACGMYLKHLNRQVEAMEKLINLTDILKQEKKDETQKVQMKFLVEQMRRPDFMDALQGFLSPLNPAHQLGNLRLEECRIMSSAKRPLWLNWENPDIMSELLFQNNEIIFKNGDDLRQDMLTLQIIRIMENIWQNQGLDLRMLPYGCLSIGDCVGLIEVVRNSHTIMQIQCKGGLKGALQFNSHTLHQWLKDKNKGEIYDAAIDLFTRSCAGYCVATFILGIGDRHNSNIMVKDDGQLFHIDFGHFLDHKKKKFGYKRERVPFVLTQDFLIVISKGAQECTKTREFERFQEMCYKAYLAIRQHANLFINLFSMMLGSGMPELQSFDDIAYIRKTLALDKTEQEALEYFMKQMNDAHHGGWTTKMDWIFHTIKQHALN
Sequence of PI3Kα (p110/p85) kinase (wild type, "WT") (P27986 whole entry partner): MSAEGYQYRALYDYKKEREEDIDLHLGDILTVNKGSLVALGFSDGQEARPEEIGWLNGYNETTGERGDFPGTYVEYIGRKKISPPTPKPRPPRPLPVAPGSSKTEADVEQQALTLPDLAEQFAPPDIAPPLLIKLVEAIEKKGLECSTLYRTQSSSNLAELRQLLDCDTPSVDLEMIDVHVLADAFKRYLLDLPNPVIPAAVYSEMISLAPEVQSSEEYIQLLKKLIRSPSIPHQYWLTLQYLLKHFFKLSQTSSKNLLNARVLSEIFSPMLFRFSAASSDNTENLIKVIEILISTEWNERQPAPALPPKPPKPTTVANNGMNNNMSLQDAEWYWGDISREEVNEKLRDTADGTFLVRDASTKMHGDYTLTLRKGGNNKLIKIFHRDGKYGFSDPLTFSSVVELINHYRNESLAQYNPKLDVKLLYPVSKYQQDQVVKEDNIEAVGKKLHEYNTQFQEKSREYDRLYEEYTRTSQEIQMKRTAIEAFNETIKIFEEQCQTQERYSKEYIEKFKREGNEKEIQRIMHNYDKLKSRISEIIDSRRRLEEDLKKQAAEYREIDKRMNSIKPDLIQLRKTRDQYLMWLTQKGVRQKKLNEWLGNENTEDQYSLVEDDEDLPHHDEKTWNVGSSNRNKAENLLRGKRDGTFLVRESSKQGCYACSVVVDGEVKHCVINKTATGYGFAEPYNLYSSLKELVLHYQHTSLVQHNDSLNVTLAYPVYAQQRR

With `Cc1cc(C(C)Nc2ccccc2C(=O)O)c2cc(C#Cc3cnn(-c4ccccc4)c3)n(C)c(=O)c2c1` (stereo not drawn) [Example 94, 2-((1-(2,7-dimethyl-1-oxo-3-((1-phenyl-1H-pyrazol-4-yl)ethynyl)-1,2-dihydroisoquinolin-5-yl)ethyl)amino)benzoic acid], the IC50 is over 100 µM in test [1], 3.28 µM in test [2], over 10 µM in test [3] and over 10 µM in test [4]. Further, the “Selectivity: SK-BR-3/T-47D (p-AKT)” value in test [2] is reported as over 3.05.

Regarding `Cc1cc(C(C)Nc2ccccc2C(=O)O)c2cc(-c3ccc(F)cc3)n(C3COC3)c(=O)c2c1` (stereo not drawn) [Example 95, 2-((1-(3-(4-fluorophenyl)-7-methyl-2-(oxetan-3-yl)-1-oxo-1,2-dihydroisoquinolin-5-yl)ethyl)amino)benzoic acid], the IC50 in test [1] is 4.33 µM; in test [2], 0.0256 µM; in test [3] it was 1.36 µM; in test [4], 0.284 µM. In addition, the “Selectivity: SK-BR-3/T-47D (p-AKT)” value in test [2] is given as 52.9. In addition, in test [4], the “Selectivity: SK-BR-3/T-47D (cell proliferation)” value is listed as over 35.

As to `Cc1cc(C(C)Nc2ccccc2C(=O)O)c2cc(-c3ccc(F)cc3)n(C3CCOCC3)c(=O)c2c1` (stereo not drawn) [Example 96, 2-((1-(3-(4-fluorophenyl)-7-methyl-1-oxo-2-(tetrahydro-2H-pyran-4-yl)-1,2-dihydroisoquinolin-5-yl)ethyl)amino)benzoic acid], the 50% inhibitory concentration (IC50) was determined as 72 µM in test [1], 0.33 µM in test [2], 9.52 µM in test [3] and 0.993 µM in test [4]. Also, the “Selectivity: SK-BR-3/T-47D (p-AKT)” value in test [2] was determined as 28.8. For the same compound, in test [4], the “Selectivity: SK-BR-3/T-47D (cell proliferation)” value is listed as over 10.

As to `Cc1cc(C(C)Nc2ccncc2C(=O)O)c2cc(-c3ccc(F)cc3)n(C)c(=O)c2c1` (stereo not drawn) [Example 97, 4-((1-(3-(4-fluorophenyl)-2,7-dimethyl-1-oxo-1,2-dihydroisoquinolin-5-yl)ethyl)amino)nicotinic acid], the IC50 in test [1] was over 100 µM; in test [2] it was over 10 µM; in test [3], over 10 µM; in test [4], over 10 µM.

What is called IC50 is the concentration that inhibits the measured activity by half.
